Measurements from patent US20110144577A1, “HYDROPHILIC COATINGS WITH TUNABLE COMPOSITION FOR DRUG COATED BALLOON” (priority 2009, published 2011).

Assay: Solubility enhancement of zotarolimus with select excipients in PBS
Assay type: physicochemical
Details: n = 3
Description: Table 1 provides non-limiting examples of the solubility enhancement provided by excipients that can be used in accordance with the disclosed subject matter: […]

solubility (PBS with 5% w/w PEG 400, aqueous with cosolvent or surfactant or cyclodextrin, PEG 400 5% w/w in PBS): 31.5 ± 3.5 µg/mL | solubility (PBS with 5% w/w PEG-PE, aqueous with cosolvent or surfactant or cyclodextrin, PEG-PE 5% w/w in PBS): 1020 ± 417 µg/mL | solubility (PBS with 5% w/w PVP C-17, aqueous with cosolvent or surfactant or cyclodextrin, PVP C-17 5% w/w in PBS): 5.6 ± 1.6 µg/mL | solubility (PBS with 5% w/w Tween 20, aqueous with cosolvent or surfactant or cyclodextrin, Tween 20 5% w/w in PBS): 732 ± 94.7 µg/mL | solubility (PBS with 5% w/w Vitamin E TPGS, aqueous with cosolvent or surfactant or cyclodextrin, Vitamin E TPGS 5% w/w in PBS): 512 ± 49.5 µg/mL | solubility (PBS with 5% w/w glycerol, aqueous with cosolvent or surfactant or cyclodextrin, Glycerol 5% w/w in PBS): 43.2 ± 30.1 µg/mL | solubility (PBS with 5% w/w hydroxypropyl-β-cyclodextrin, aqueous with cosolvent or surfactant or cyclodextrin, Hydroxypropyl-β-cyclodextrin 5% w/w in PBS): 11.6 ± 3.1 µg/mL | solubility (PBS with 5% γ-cyclodextrin, aqueous with cosolvent or surfactant or cyclodextrin, 5% γ-Cyclodextrin in PBS): 55.3 ± 34.3 µg/mL
Compound: CO[C@H]1C[C@@H]2CC[C@@H](C)[C@@](O)(O2)C(=O)C(=O)N2CCCC[C@H]2C(=O)O[C@H]([C@H](C)C[C@@H]2CC[C@H](n3cnnn3)[C@H](OC)C2)CC(=O)[C@H](C)/C=C(\C)[C@@H](O)[C@@H](OC)C(=O)[C@H](C)C[C@H](C)/C=C/C=C/C=C/1C [Zotarolimus, zotarolimus]
